Assay results as given in US11931347B2, “Method of screening for agents for differentiating stem cells” (MINERVA BIOTECHNOLOGIES CORPORATION, priority 2015, dated 2024).

How the values were obtained:
[1] = tested on: human naïve state stem cells; assay: stem cell drug screening assay on naïve state stem cells; assay type: cell-based; conditions: 6 uM, 3 days
Protocol: The stem cell screening assay, was performed in both the presence and absence of the stem cell growth factors: NME7AB for growing naïve stem cells or FGF for growing primed stem cells. If the cognate growth factor was present, then the biological or small molecule would have to compete away the growth factor to get an effect. Therefore, we expected to see more of an effect when the growth factor, FGF for primed stem cells or NME7AB or NME1 dimers for naïve stem cells, was absent. The effect of the compounds on stem cells was visually determined and compounds were ranked 0-4, with 4 being the greatest effect and 0 being no observable effect. The major effect that was observed was a change from pluripotent stem cell morphology, which is a cobblestone pattern of small round cells with a large nucleus to cytoplasm ratio, to that of differentiating stem cells, which are elongated, large and flattened cells with a smaller nucleus to cytoplasm ratio. […] The compounds were added to a final concentration of 6 uM to either naïve state stem cells or primed state stem cells. In this particular case, the naïve state stem cells were maintained in a naïve state by culturing in a media containing NME7AB or NME1 dimers. However, other methods such as 2i and 5i (Silva et al., 2008, Nichols and Smith, 2009, Theunissen et al., 2014)] can be used to maintain stem cells in a more naïve state. In this case primed state stem cells were cultured in bFGF over a layer of MEFs, although it is known that any bFGF containing media will maintain stem cells in the primed state.
Stem cells whether embryonic or induced pluripotent stem (iPS) cells were cultured in a minimal, serum-free media that contained human recombinant NME7AB at a concentration of 2-32 nM wherein 4-8 nM is preferred and 4 nM is more preferred. To facilitate surface attachment, cell culture plates were coated with an anti-MUC1* monoclonal antibody called MN-C3 or C3 or MN-C8 at a concentration of 2-100 ug/mL coating solution, wherein 3-50 ug/mL is preferred and 6-12.5 ug/mL is more preferred. In these experiments, 12.5 ug/mL of MN-C3 was used. Antibody coated plates were incubated at 4 degrees C. overnight prior to plating stem cells. A Rho kinase I inhibitor was added to enhance surface attachment. In some cases, NME7AB was substituted with human recombinant NME1 dimers which also induce stem cells to revert to a naïve-like state.
Human naïve state and primed stem cells were cultured in parallel for at least 5 passages to guarantee normal differentiation-free growth. The stem cells were plated in 12-well cell culture plates with 50,000 cells per well. Cells were cultured in their respective media, either bFGF media or NME7AB media for 24 hours. Media was then removed and replaced with media devoid of bFGF or NME7AB, when indicated. Agents being tested for their ability to induce differentiation of naïve stem cells were added to the media at the concentrations indicated. After 72 hours, photographs were taken see FIGS. 1-10.
Human naïve state and primed stem cells were cultured in parallel for at least 5 passages to guarantee normal differentiation-free growth. The stem cells were plated in 12-well cell culture plates with 50,000 cells per well. Cells were cultured in their respective media, either bFGF media or NME7AB media for 24 hours. Media was then removed and replaced with media devoid of bFGF or NME7AB. […] Media was changed after 48 hours and replaced with fresh media containing the BRD4 inhibitors. After 4 days the experiment was stopped. Photographs were taken and cell pellets collected for further analysis, see FIGS. 11-16.

[2] = tested on: MUC1* positive cancer cells; assay: cancer cell growth in vitro (previously shown); assay type: cell-based
[3] = tested on: T47D breast cancer cells; assay: cancer cell proliferation assay (Calcein live cell stain); assay type: cell-based, human; conditions: live cell Calcein stain, 96 hours (FIG. 113)
Protocol: These analogs of MN1194 and 1186 were also tested in a cell growth assay (FIGS. 107A1-107H6 and FIG. 108A1-108H6, respectively). In this experiment, both parent compound and analogs thereof were added to normal cell culture media to final concentrations of 40 uM, 20 uM, 10 uM, 5 uM or 2.5 uM. For comparison, previously known cancer cell migration inhibitors SU11274 and MN1204 were included in the same experiment. […] Relative cell proliferation is quantified on a standard plate reader that reads the fluorescence of the Calcein that is taken up by live cells.
Small molecule inhibition of cancer cell proliferation studies were also performed on several cancer sub-types. […] The small molecules of the invention had the most robust effect on T47D breast cancer cells, which are highly positive for MUC1* growth factor receptor, and its activating ligands NME7AB and NME7-X1.
For the cancer cell proliferation experiment cancer cells were plated at constant densities (6000 cells/well) into a 96-well White-walled/Clear-bottom Tissue Culture Treated plate (Corning Incorporated, Big Flats, N.Y.). Small molecule analogs are added at T=24 hours in media with 2% FBS. Following the addition of the small molecules, the cells remain untouched for 120 hours with visual confirmations/inspections at 24, 48, 72 and 96 hours post plating. At the 120 hour mark a calcein fluorescence assay (Thermo Fisher Scientific, Waltham, Mass.) is performed on the plate. Calcein fluorescence (final concentration 0.5 uM) is used to assess cell viability. Cancer cell fluorescence is measured in a TECAN SAFIRE^2 spectrophotometer plate reader. The plate is then imaged using an Olympus IX71 fluorescence imaging microscope and montage of the resulting images are assembled using ImageJ.

[4] = tested on: SK-OV-3 MUC1* positive ovarian cancer cells; assay: cancer cell proliferation assay (Calcein); assay type: cell-based; conditions: 96 hours (FIG. 112)
Protocol: Small molecule inhibition of cancer cell proliferation studies were also performed on several cancer sub-types. […] The small molecules of the invention had the most robust effect on T47D breast cancer cells, which are highly positive for MUC1* growth factor receptor, and its activating ligands NME7AB and NME7-X1. […] For the cancer cell proliferation experiment cancer cells were plated at constant densities (6000 cells/well) into a 96-well White-walled/Clear-bottom Tissue Culture Treated plate (Corning Incorporated, Big Flats, N.Y.). Small molecule analogs are added at T=24 hours in media with 2% FBS. […] […] Calcein fluorescence (final concentration 0.5 uM) is used to assess cell viability. Cancer cell fluorescence is measured in a TECAN SAFIRE^2 spectrophotometer plate reader. The plate is then imaged using an Olympus IX71 fluorescence imaging microscope and montage of the resulting images are assembled using ImageJ.

[5] = tested on: OV-90 MUC1* negative ovarian cancer cells; assay: cancer cell proliferation assay (Calcein); assay type: cell-based; conditions: 96 hours (FIG. 114)
Protocol: Small molecule inhibition of cancer cell proliferation studies were also performed on several cancer sub-types. […] The small molecules of the invention had the most robust effect on T47D breast cancer cells, which are highly positive for MUC1* growth factor receptor, and its activating ligands NME7AB and NME7-X1. […] For the cancer cell proliferation experiment cancer cells were plated at constant densities (6000 cells/well) into a 96-well White-walled/Clear-bottom Tissue Culture Treated plate (Corning Incorporated, Big Flats, N.Y.). Small molecule analogs are added at T=24 hours in media with 2% FBS. Following the addition of the small molecules, the cells remain untouched for 120 hours with visual confirmations/inspections at 24, 48, 72 and 96 hours post plating. At the 120 hour mark a calcein fluorescence assay (Thermo Fisher Scientific, Waltham, Mass.) is performed on the plate. Calcein fluorescence (final concentration 0.5 uM) is used to assess cell viability. Cancer cell fluorescence is measured in a TECAN SAFIRE^2 spectrophotometer plate reader. The plate is then imaged using an Olympus IX71 fluorescence imaging microscope and montage of the resulting images are assembled using ImageJ.

[6] = tested on: E-cadherin, fibronectin, vimentin and NF1 expression in naïve stem cells; assay: RT-PCR of differentiation markers in treated naïve stem cells; assay type: cell-based, human
Protocol: FIG. 161 is a graph of RT-PCR measurement of naïve stem cells that have been treated with compounds of the invention. The genes whose expression is measured are E-cadherin, which goes […] as cells undergo epithelial to mesenchymal transition, fibronectin and vimentin, which both increase as stem cells initiate differentiation and NF1, which is one of the first genes to increase when stem cells begin to differentiate down the neural lineage. […] E-cadherin is the opposite; it […] as cells become cancerous. […] Expression of metastatic marker E-cadherin was reduced and expression of differentiation markers fibronectin, vimentin and NF1 were increased (FIG. 162-FIG. 163). Novel compounds of the invention are highly specific. […] Although we discovered that NME1 dimers, NME7AB and NME7-X1 are all activating ligands of the MUC1* growth factor receptor and they bind to its extracellular domain, we have developed ample evidence that both NME7AB and NME7-X1 have other binding partners and can exert oncogenic effects, independent of MUC1*.

[7] = tested on: NME7AB-induced transition of regular cancer cells to metastatic cancer cells; assay: transition of regular cancer cells to metastatic cancer cells (previously shown); assay type: cell-based

Row | Compound | effect on naïve stem cell pluripotency, growth or differentiation (visually determined) [1] | inhibition of cancer cell growth in vitro [2] | inhibition of growth of T47D cells [3] | effect on growth of SK-OV-3 cells [4] | effect on growth of OV-90 cells [5] | up-regulation of markers of differentiation in naïve stem cells (RT-PCR) [6] | inhibition of transition of regular cancer cells to metastatic cancer cells [7]
1 | COC(=O)c1ccc(C2c3[nH]c4ccccc4c3CCN2C(=O)c2cccc(Cl)c2)cc1 (centres unmarked) [MN0642] | induced differentiation | inhibit the growth of cancer cells in vitro | – | – | – | – | –
2 | Cc1[nH]c(/C=C2\C(=O)Nc3ccc(S(=O)(=O)N(C)c4cccc(Cl)c4)cc32)c(C)c1C(=O)N1CCN(C)CC1 [SU11274] | – | – | inhibited growth | no effect | neither the compounds of the invention nor JQ1 or SU11274 had any apparent effect | did not cause up-regulation of markers of differentiation | –
3 | FLR peptide: synthetic peptide corresponding to the extracellular domain of MUC1*, PSMGFR, SEQ ID NO:3 (GTINVHDVETQFNQYKTEAASRYNLTISDVSVSDVPFPFSAQSGA; the extracellular domain of Native Primary Sequence of the MUC1 Growth Factor Receptor (nat-PSMGFR - an example of “PSMGFR”)) | induced differentiation | – | – | – | – | – | inhibit the transition of regular cancer cells to metastatic cancer cells
